Where two headings read alike, the source gives them in different places.
Tests used:
[1] = test system: CD-1 mice; set-up: method as in Schwarz et al., 2024; settings: 100 mg/kg i.p., not at 10 or 320 mg/kg, ref Schwarz et al., 2024, cited from earlier work
[2] = test system: C57BL/6Crl mice; test: Cannabinoid tetrad: internal body temperature (rectal thermometer); type: in vivo; settings: for ED50: Mus musculus, iv
[3] = test system: CB1R; set-up: method as in earlier work; settings: ref El-Alfy et al., 2010; Navarro et al., 2018; Zagzoog et al., 2020; cited from earlier work
[4] = test system: male Sprague Dawley rats; set-up: method as in Jenkins et al., 2023; settings: acute oral 100 mg/kg, 30 min post-administration; ref Jenkins et al., 2023; cited from earlier work
[5] = set-up: method as in Deiana et al., 2012; settings: ref Deiana et al., 2012, cited from earlier work
[6] = test system: humans; set-up: method as in Cuttler et al., 2024; settings: oral 20 mg CBG; ref Cuttler et al., 2024; cited from earlier work
[7] = test system: male mice; set-up: method as in Zagzoog et al., 2020; settings: i.p., 15 min post-injection; ref Zagzoog et al., 2020; cited from earlier work
[8] = Phase I pharmacokinetic profile: blood concentration vs time by HPLC-MS/MS after a single 10 mg/kg dose; type: in vivo, C57BL/6Crl mice; settings: for k (terminal phase rate constant): noncompartmental
Procedure: In phase I, male mice were randomly assigned to Groups A, B, C, or D. Interventions per group are specified in Figure 2. Each group was divided into 3 cohorts and randomly assigned to receive p.o., i.p., or i.v. administration. Oral (p.o.) administration cohorts received 10 mg/kg CBG in olive oil with 10% DMSO, and i.p. and i.v. cohorts received 10 mg/kg CBG with 10% DMSO and vehicle (1:1:18 ethanol: kolliphor: saline). PK profiles were developed for blood collection at 10 min, 30 min, 1 h, 3 h, 6 h, 12 h, 18 h, and 24 h. Blood collection was performed using a destructive sampling method, with each mouse providing blood at two time point collections. The initial blood draw aimed to obtain a 100 µL blood sample from the left leg lateral saphenous vein of the mouse, and the second blood draw from the same mouse involved the administration of isoflurane (3%–5%) followed by exsanguination via cardiac puncture. Group A was subjected to two time point blood draws, at 10 min and at 30 min. Groups B-D were first subjected to the cannabinoid-induced tetrad assay, then two time point blood draws. Due to time constraints, the open field test (OFT) was not performed in Phase I.
Blood collection from the saphenous leg vein was drawn into a RAM Scientific Safe-T-Fill™ Capillary blood collection system containing heparin and lithium (Waltham, Massachusetts, U.S). Blood collection from the cardiac puncture was drawn into a syringe and transferred to a 2 mL blood collection tube containing heparin and lithium. Samples were immediately placed on ice, transferred to LoBind® tubes as quickly as possible, and then stored at −80 °C. The blood concentrations of CBG were determined using High-Performance Liquid Chromatography-Tandem Mass Spectrometry (HPLC-MS/MS).
The PK parameters for CBG were determined by GraphPad Prism (v. 10.2.3). Linear regression analysis natural log of the concentration versus time curve was utilized to derive the terminal phase rate constant (k), from which the terminal phase half-life (t1/2) was calculated using the ratio (0.693/k). For both p.o. and i.p. administration, the Cmax was obtained directly from visual inspection of the blood concentration versus time profiles. For the purposes of this study, Tmax refers to the time at which Cmax was reported. The log-linear trapezoidal method was used to calculate the total area under the curve (AUC) of the average blood concentrations versus time profile with extrapolation to infinity, where the tail of the AUC (i.e., last concentration extrapolated to infinity) was calculated as the ratio Cp,last/k. Bioavailability was estimated by dividing the mean total AUC∞ for each route of administration by the total AUC observed for each compound following i.v. administration (where F = 100%, by definition). Systemic clearance (ClS) was calculated as the ratio Dose i.v. /AUC ∞ . The apparent volume of distribution (Vd) was calculated as Dose i.v. /(k × AUC ∞ ).
HPLC-MS/MS was used to quantify CBG in the blood using a 1,260 Agilent (Agilent Technologies Canada, Mississauga, ON) High Performance Liquid Chromatography (HPLC) system connected to an AB Sciex 4,000 Hybrid Triple Quadruple Linear Ion Trap Mass Spectrometer (QTRAP) equipped with a Turboionspray™ interface (AB Sciex, Concord, ON). The analytical method was developed and validated for mouse blood. An Infinity lab Phenyl Hexyl column (4.6 × 12.5 mm, 5 μm) and guard column (4.6 × 12.5 mm, 5 μm) were used to separate compounds, and the temperature was set to 50 °C.

[9] = Phase II blood concentration 10 min after i.v. administration (HPLC-MS/MS)
[10] = 10 mg/kg i.v., male mice, blood
[11] = C57BL/6Crl, mouse, whole blood, ip, 10 mg/kg i.p., male mice, blood
[12] = C57BL/6Crl, mouse, whole blood, iv, 10 mg/kg i.v., male mice, blood
[13] = C57BL/6Crl, mouse, whole blood, po, 10 mg/kg p.o., male mice, blood

For `CCCCCc1cc(O)c(C/C=C(\C)CCC=C(C)C)c(O)c1` [CBG, cannabigerol], the anti-nociception ([1]; 20 min post-injection) is given as “anti-nociception”, the hypothermia ([1]; 30 min post-injection) is given as “resulted in hypothermia” and the “body temperature vs vehicle” value ([2]; 10 mg/kg i.p. or p.o., male mice, 15 min post-injection) is given as “significant increase in temperature”. For the same compound, the “body temperature vs vehicle” value ([2]; 10 mg/kg, all routes (i.v. 15 min, i.p. 25 min, p.o. 175 min), male and female mice) was “decreased body temperature compared to vehicle”, the “hypothermia, dose-response” value ([2]; 1, 3, 10 or 30 mg/kg i.v., male and female mice) was “produced a modest effect but only at the highest dose tested, 30 mg/kg” and the ED50 ([2]; 0.25 h, both sexes, 15 min post-administration) was > 30 mg/kg. For the same compound, the ED50 ([2]; males) was > 30 mg/kg, the “effect on body temperature, dose-response” value ([2]; i.v., Phase II) was “did not alter body temperature” and the “CB1R affinity relative to THC” value [3] was “approximately one-twentieth”. The anxiolytic effects [4] was “did not produce anxiolytic effects”, the “time to peak plasma concentration (Tmax)” value ([5]; i.p.) was 2 h and the “time to peak plasma concentration (Tmax)” value ([5]; p.o.) was 0.5 h. For the same compound, the “reduction in anxiety levels from baseline” value [6] was 26.5%, the anti-nociceptive effect [7] was “evoked an anti-nociceptive effect” and the “p.o. Cmax as percent of i.p. Cmax” value ([8]; 10 mg/kg CBG, male mice) was 2%. For the same compound, the “k (terminal phase rate constant)” value ([8]; 10 mg/kg i.p., male mice, blood) was 0.069 h⁻¹, the α [8, 10] was 1.016 h⁻¹ and the “k (terminal phase rate constant)” value [8, 10] was 0.0698 h⁻¹. For the same compound, the AUC(0-inf) [8, 11] was 1170 ng·h/mL, the Cmax [8, 11] was 516 ng/mL and the Tmax [8, 11] was 0.5 h. It also gave a half-life [8, 11] of 10 h, an AUC(0-inf) [8, 12] of 2800 ng·h/mL and a half-life [8, 12] of 9.9 h. It also gave a clearance ([8]; C57BL/6Crl, mouse, whole blood, iv, 10 mg/kg i.v., male mice, read-out: ClS (systemic clearance)) of 59.4 mL/min/kg, a Vd ([8]; C57BL/6Crl, mouse, whole blood, iv, 10 mg/kg i.v., male mice, read-out: Vd (apparent volume of distribution)) of 51.1 L/kg and a Cmax [8, 13] of 10.5 ng/mL. The Tmax [8, 13] was 3 h, the concentration at 10 min ([8]; male, C57BL/6Crl, mouse, whole blood, iv, 10 mg/kg, i.v., males, read-out: C at 10 min (blood concentration 10 min post-administration)) was 2840 ng/mL and the “mean blood concentration of CBG relative to THC” value ([9]; 10 mg/kg i.v., higher than THC) was “approximately 5 times”. The concentration at 10 min ([9]; both, C57BL/6Crl, mouse, whole blood, intravenous, 10 mg/kg) was 2700 ng/mL.

From article PMC12722920, “Pharmacokinetics and pharmacodynamics of cannabigerol (CBG) in the C57BL/6Crl mouse” (Frontiers in Pharmacology, 2025)
